Laboratory results published in US20150157634A1, “METHODS OF TREATING AND PREVENTING ALLOANTIBODY DRIVEN CHRONIC GRAFT VERSUS HOST DISEASE” (PHARMACYCLICS, INC., priority 2013, published 2015).

Legend:
[1] = system: C57BL/6→B10.BR cGVHD model; assay: Overall survival of cGVHD mice (Kaplan Meier); type: in vivo, mouse; details: ibrutinib cohort; FIG. 2
Procedure: FIG. 2 exemplifies survival of cGVHD mice in C57BL/6→B10.BR model. Kaplan Meier plot of overall survival for bone marrow (BM) non-cGVHD mice, BM+splenocyte (S) engrafted cGVHD irrelevant vehicle treated mice, or Ibrutinib treated BM+S engrafted mice.
(§1) Therapeutic allo-HSCT model: The C57BL/6→B10.BR model has been described previously (Srinivasan, M. et al. Blood 119, 1570-1580 (2012)). In brief, B10.BR recipients conditioned with 120 mg/kg/day I.P. cyclophosphamide (Cy) on days −3 and −2 and 8.3 Gy TBI (using a ^137Cesium irradiator) on day −1 were engrafted with 1×10^7 Thy1.2 depleted C57BL/6 derived bone marrow (BM) cells with (or without) 1×10^6 allogeneic splenocytes.
(§2) Therapeutic administration of ibrutinib via drinking water was conducted as previously described (Dubovsky 2013). Mice received a dose equivalent to 15 mg/Kg/day in 0.4% methylcellulose by intraperitoneal injection starting day 28 post-transplant for the C57BL/6→B10.BR model. Cyclosporine A was administered I.P. in 0.2% CMC at 10 mg/kg/day starting at day 25 for 2-weeks followed by 3× weekly (Blazar, B. R. et al. Blood 92, 3949-3959 (1998)).

[2] = system: C57BL/6→B10.BR cGVHD model; assay: Pulmonary function tests (PFTs) at day 60 in therapeutic allo-HSCT cGVHD/bronchiolitis obliterans model; type: in vivo, mouse
Procedure: To determine whether ibrutinib could reverse established cGVHD, a murine model of alloantibody driven multi-organ system cGVHD including bronchiolar obliterans (BO) (MHC disparate, C57BL/6→B10.BR) was utilized.
as §1, §2
Pulmonary function tests: Pulmonary function tests (PFTs) were performed on anesthetized mice using whole-body plehysmography with the Flexivent system (SCIREQ).

[3] = system: C57BL/6→B10.BR cGVHD model; assay: Pulmonary immunoglobulin deposition (anti-mouse Ig FITC immunofluorescence of lung sections); type: in vivo; details: day 60 post-HSCT
Text: (§3) FIG. 4 exemplifies germinal center reactions and pulmonary immunoglobulin deposition are therapeutically abated with administration of ibrutinib. A) Germinal centers were imaged by staining 6 um spleen sections with PNA conjugated to rhodamine. B) Splenocytes were purified from transplanted mice on day 60 and frequency of germinal center B cells were quantified. C) 6 μm lung sections from day 60 transplanted mice were stained with anti-mouse Ig conjugated to FITC. D) quantified with Adobe Photoshop CS3.
as §1, §2

[4] = Weekly body weight of cGVHD mice; type: in vivo, mouse; details: BM, BM+S vehicle and BM+S ibrutinib groups; FIG. 3
Procedure: FIG. 3 exemplifies body weight of cGVHD mice in C57BL/6→B10.BR model. Bodyweight measurements for bone marrow (BM) non-cGVHD mice, BM+splenocyte (S) engrafted cGVHD irrelevant vehicle treated mice, or Ibrutinib treated BM+S engrafted mice.
as §1, §2

[5] = system: C57BL/6→B10.BR cGVHD model; assay: Masson trichrome staining of pulmonary collagen deposition / fibrosis in cGVHD model; type: in vivo, mouse
Procedure: as §1, §2
Masson Trichrome staining: 6 μm cryosections were fixed for 5 minutes in acetone and stained with hematoxylin and eosin to determine pathology and with the Masson's trichrome staining kit (Sigma) for detection of collagen deposition. Histopathology scores were assigned as described (Blazar, B. R. et al. Blood 92, 3949-3959 (1998)). Collagen deposition was quantified on trichrome stained sections as a ratio of area of blue staining to area of total staining using the Adobe Photoshop CS3 analysis tool.

[6] = system: C57BL/6→B10.BR cGVHD model; assay: Germinal center detection in spleen (PNA staining, flow cytometry of GC B-cells); type: in vivo, mouse
Text: as §3, §1
as §2, with “(1998)). […]” for “(1998)).”

## C=CC(=O)N1CCC[C@@H](n2nc(-c3ccc(Oc4ccccc4)cc3)c3c(N)ncnc32)C1 [ibrutinib, (R)-1-(3-(4-amino-3-(4-phenoxyphenyl)-1H-pyrazolo[3,4-d]pyrimidin-1-yl)piperidin-1-yl)prop-2-en-1-one]
[1]
  survival: 100%
[2]; C57BL/6→B10.BR cGVHD model
  pulmonary function (summary statement): restored pulmonary function
[2]; ibrutinib 15 mg/Kg/day from day 28 post-transplant, PFT day 60, p=0.0019, FIG. 1B
  development of BO as measured by pulmonary elastance: curtailed the development of BO in vivo
[2]; ibrutinib 15 mg/Kg/day from day 28 post-transplant, PFT day 60, p=0.0071, FIG. 1C
  development of BO as measured by pulmonary compliance: curtailed the development of BO in vivo
[2]; ibrutinib 15 mg/Kg/day from day 28 post-transplant, PFT day 60, p=0.0090, FIG. 1A
  development of BO as measured by pulmonary resistance: curtailed the development of BO in vivo
[3]; FIG. 4C
  pulmonary deposition of allo-Ig (immunofluorescent microscopy): limited pulmonary deposition of allo-Ig
[3]; p<0.001, FIG. 4D
  quantified immunofluorescent signal of pulmonary Ig deposition: significant and complete ablation of pulmonary Ig deposition
[4]
  mouse bodyweight, weekly evaluation: little variation between groups
[5]; 4 mice from 3 experiments, representative images, FIG. 1D
  peribronchiolar collagen fibrosis, Masson Trichrome staining of inflated pulmonary tissues: less peribroncheolar collagen fibrosis
[5]; C57BL/6→B10.BR cGVHD model
  lung and liver fibrosis (summary statement): reversed lung and liver fibrosis
[5]; p<0.0001, FIG. 1E
  quantified trichrome staining (pulmonary fibrosis, ratio of blue area to total area): ameliorates pulmonary fibrosis caused by cGVHD
[6]; compared to vehicle treated mice with active cGVHD, FIG. 4A
  GC reactions within the spleen (peanut agglutinin staining): reduced the overall size, cellularity, and number of GC reactions
[6]; day 60 post-HSCT, 8 mice per group, p=0.0222, FIG. 4B
  CD19+GL7+CD38lo germinal center B-cells within the spleen (flow cytometry): significantly inhibited the cGVHD-induced formation germinal center B-cells
